Assay results taken from paper PMC9127750, “Structure-based design of CDC42 effector interaction inhibitors for the treatment of cancer” (Cell reports, 2022).
Where “and” joins values, the source holds several entries; their conditions need not be identical. Equal values may be shown once.

Tested on: WM3248 melanoma cells, 486 antibodies
Assay: Reverse phase protein arrays (RPPA)
Type: cell-based, Human
Details: 10, normalized to 0
From the text: Pellets were snap frozen in liquid nitrogen and shipped to MD Anderson Cancer Center core RPPA facility for RPPA analysis (Table S5). Three biological replicates for each sample were generated.
Nomenclatures on the RPPA heatmaps: name_of_antibody.species_of_antibody.status_of_antibody. V - antibody validated; C - validation of antibody in progress; Q - antibody nonspecific; E – under evaluation; antibodies raised in M - mouse, G - goat, R - rabbit, or T - rat.

CN(C)c1cccc(Nc2cc(-c3ccccc3)nc(C3CCNCC3)n2)c1 [ARN22089, N1,N1-dimethyl-N3-(6-phenyl-2-(piperidin-4-yl)pyrimidin-4-yl)benzene-1,3-diamine]
FoxO3a_pS318_S321.R.C Norm_10 Average (average): 1.029 | G6PD.R.V Norm_10 Average (average): 1.034 | GATA3.M.V Norm_10 Average (average): 1.281 | GATA6.R.V Norm_10 Average (average): 1.018 | GCLC.R.C Norm_10 Average (average): 0.996 | GCLM.R.V Norm_10 Average (average): 1.023 | GCN5L2.R.V Norm_10 Average (average): 0.928 | GRB2.R.V Norm_10 Average (average): 0.887 | GRB7.R.V Norm_10 Average (average): 0.924 | GSK.3B.R.C Norm_10 Average (average): 0.899 | GSK.3a.b.M.V Norm_10 Average (average): 1.031 | GSK.3a.b_pS21_S9.R.V Norm_10 Average (average): 1.266 | Gab2.R.V Norm_10 Average (average): 1.065 | Gli1.R.C Norm_10 Average (average): 1.005 | Gli3.R.C Norm_10 Average (average): 1.134 | Glucocorticoid.Receptor.R.V Norm_10 Average (average): 1.119 | Glutamate.D1.2.R.V Norm_10 Average (average): 1.156 | Granzyme.B.R.V Norm_10 Average (average): 0.968 | Grp75.R.C Norm_10 Average (average): 1.129 | Gys.R.V Norm_10 Average (average): 0.931 | Gys_pS641.R.V Norm_10 Average (average): 0.978 | H2AX_pS139.R.C Norm_10 Average (average): 0.977 | H2AX_pS140.M.C Norm_10 Average (average): 1.138 | HER2.M.V Norm_10 Average (average): 1.033 | HER2_pY1248.R.V Norm_10 Average (average): 0.915 | HER3_pY1289.R.C Norm_10 Average (average): 1.047 | HES1.R.V Norm_10 Average (average): 0.974 | eEF2.R.C Norm_10 Average (average): 1.492 | eEF2K.R.V Norm_10 Average (average): 1.201 | eIF4E.R.V Norm_10 Average (average): 0.994 | eIF4E_pS209.R.V Norm_10 Average (average): 0.960 | eIF4G.R.C Norm_10 Average (average): 0.972 | DNMT1.R.V Norm_10 (replicates 1-3): 1.003 and 1.020 and 1.147 | DRP1.R.V Norm_10 (replicates 1-3): 0.964 and 0.992 | DUSP4.R.V Norm_10 (replicates 1-3): 0.853 and 0.881 and 0.939 | DUSP6.R.C Norm_10 (replicates 1-3): 1.409 and 0.561 | DYRK1B.R.C Norm_10 (replicates 1-3): 0.895 and 0.964 and 0.986 | Dvl3.R.V Norm_10 (replicates 1-3): 0.922 and 1.053 and 0.910 | E2F1.R.V Norm_10 (replicates 1-3): 1.049 and 1.123 and 1.077 | E.Cadherin.R.V Norm_10 (replicates 1-3): 0.791 and 0.958 | EGFR.R.V Norm_10 (replicates 1-3): 0.866 and 1.059 and 1.002 | EGFR_pY1068.R.C Norm_10 (replicates 1-3): 0.894 and 0.930 and 1.047 | EGFR_pY1173.R.V Norm_10 (replicates 1-3): 1.016 and 0.963 and 0.929 | EMA.M.C Norm_10 (replicates 1-3): 0.676 and 1.005 | ENY2.M.C Norm_10 (replicates 1-3): 0.937 and 1.132 | ER.a.R.V Norm_10 (replicates 1-3): 0.989 and 0.867 and 0.907 | ER.a_pS118.R.V Norm_10 (replicates 1-3): 1.111 and 0.755 and 0.869 | ERCC1.R.C Norm_10 (replicates 1-3): 0.934 and 1.208 and 0.991 | ERCC5.R.C Norm_10 (replicates 1-3): 0.985 and 0.864 | ERRalpha.R.V Norm_10 (replicates 1-3): 0.941 and 1.106 and 0.995 | EVI1.R.V Norm_10 (replicates 1-3): 0.864 and 1.146 and 1.022 | Elk1_pS383.R.C Norm_10 (replicates 1-3): 1.027 and 0.931 | Enolase.1.R.V Norm_10 (replicates 1-3): 0.940 and 1.265 and 1.276 | Enolase.2.R.V Norm_10 (replicates 1-3): 0.995 and 1.149 and 0.982 | EphA2.R.V Norm_10 (replicates 1-3): 0.867 and 0.985 and 0.905 | EphA2_pS897.R.C Norm_10 (replicates 1-3): 0.664 and 0.906 and 1.028 | EphA2_pY588.R.C Norm_10 (replicates 1-3): 0.917 and 0.980 and 0.925 | Erk5.R.V Norm_10 (replicates 1-3): 0.835 and 0.809 and 0.986 | Ets.1.R.V Norm_10 (replicates 1-3): 1.099 and 1.361 and 1.457 | FABP5.R.C Norm_10 (replicates 1-3): 0.950 and 1.278 and 1.483 | FAK.R.C Norm_10 (replicates 1-3): 0.896 and 0.913 and 1.054 | FAK_pY397.R.V Norm_10 (replicates 1-3): 0.925 and 1.035 and 0.946 | FANCD2.R.V Norm_10 (replicates 1-3): 0.931 and 0.985 and 0.874 | FASN.R.V Norm_10 (replicates 1-3): 1.108 and 0.851 and 0.928 | FGF.basic.R.C Norm_10 (replicates 1-3): 0.849 and 0.905 and 1.085 | FN14.R.C Norm_10 (replicates 1-3): 1.121 | FOXM1.R.V Norm_10 (replicates 1-3): 0.803 and 0.992 (2×) | FOXO3.R.V Norm_10 (replicates 1-3): 0.977 and 1.253 and 1.014 | FRS2.alpha_pY196.R.V Norm_10 (replicates 1-3): 0.953 and 2.062 and 1.103 | FTO.R.V Norm_10 (replicates 1-3): 0.987 and 1.185 and 1.127 | Fibronectin.R.V Norm_10 (replicates 1-3): 0.978 and 1.062 and 1.006 | FoxO3a_pS318_S321.R.C Norm_10 (replicates 1-3): 0.963 and 1.140 and 0.984 | G6PD.R.V Norm_10 (replicates 1-3): 0.932 and 1.169 and 1.001 | GATA3.M.V Norm_10 (replicates 1-3): 1.235 and 1.401 and 1.207 | GATA6.R.V Norm_10 (replicates 1-3): 1.020 and 1.082 and 0.952 | GCLC.R.C Norm_10 (replicates 1-3): 0.939 and 0.967 and 1.083 | GCLM.R.V Norm_10 (replicates 1-3): 0.965 and 1.111 and 0.992 | GCN5L2.R.V Norm_10 (replicates 1-3): 0.997 and 0.898 and 0.890 | GGPS1.M.V Norm_10 (replicates 1-3): 0.913 and 1.085 and 1.264 | GRB2.R.V Norm_10 (replicates 1-3): 0.867 and 0.876 and 0.919 | GRB7.R.V Norm_10 (replicates 1-3): 0.829 and 0.838 and 1.106
